These results are taken from ChEMBL document CHEMBL5046234, “Discovery of novel TrkA allosteric inhibitors: Structure-based virtual screening, biological evaluation and preliminary SAR studies” (Eur J Med Chem, 2022).

The test system of assay [1] is BaF3. The assay is described as follows: Antiproliferative activity against mouse BaF3 cells expressing CD74 fused TRKA assessed as cell growth inhibition incubated for 72 hrs by CCK8 assay. In kind it is functional, cell-based. The conditions noted are these: BaF3, 72 h.
Assay [2] has as its target High affinity nerve growth factor receptor (Homo sapiens) (UniProt P04629). Briefly: Inhibition of CD74 fused TRKA (unknown origin) expressed in mouse BaF3 cells assessed as inhibition of PLCgamma1 phosphorylation by western blot analysis. The class given is cell-based. Conditions: dose 0.08-50 µM.
The subject of assay [3] is BaF3. Briefly: Antiproliferative activity against mouse BaF3 cells expressing MPRIP fused TRKA assessed as cell growth inhibition incubated for 72 hrs by CCK8 assay. The class given is functional, cell-based. Conditions: BaF3, 72 h. For orientation: Tetrazolium assays rely on reduction of a dye to a coloured formazan, in cell work by metabolically active cells.
Assay [4] deals with High affinity nerve growth factor receptor (Homo sapiens) (UniProt P04629). Briefly: Inhibition of CD74 fused TRKA (unknown origin) autophosphorylation expressed in mouse BaF3 cells by western blot analysis. The conditions noted are these: dose 0.08-50 µM. In kind it is cell-based. For orientation: A western blot detects proteins with antibodies after separation by electrophoresis.

For assay [5], the system named is BaF3. The assay is described as follows: Antiproliferative activity against mouse BaF3 cells expressing EML4 fused TRKC assessed as cell growth inhibition incubated for 72 hrs by CCK8 assay. The class given is functional, cell-based. The conditions noted are these: BaF3, 72 h.
The target of assay [6] is High affinity nerve growth factor receptor (Homo sapiens) (UniProt P04629). Briefly: Inhibition of CD74 fused TRKA (unknown origin) expressed in mouse BaF3 cells assessed as inhibition of ERK phosphorylation by western blot analysis. The class given is cell-based.
Assay [7] shares this target. Briefly: Inhibition of CD74 fused TRKA (unknown origin) expressed in mouse BaF3 cells assessed as inhibition of AKT phosphorylation by western blot analysis. The class given is cell-based. Conditions: dose 0.08-50 µM.
Assay [8] has as its system BaF3. Briefly: Antiproliferative activity against mouse BaF3 cells expressing QKI fused TRKB assessed as cell growth inhibition incubated for 72 hrs by CCK8 assay. In kind it is functional, cell-based. Conditions: BaF3, 72 h.
The subject of assay [9] is BaF3. The assay is described as follows: Antiproliferative activity against mouse BaF3 cells assessed as cell growth inhibition incubated for 72 hrs by CCK8 assay. The conditions noted are these: BaF3, 72 h. In kind it is functional, cell-based.
The target of assay [10] is BDNF/NT-3 growth factors receptor (Homo sapiens, UniProt Q16620). Briefly: Inhibition of TRKB (unknown origin) by PathHunter Enzyme Fragment Complementation assay.

A value given as a limit tells only on which side of the number the result lay.

Chain of High affinity nerve growth factor receptor (Homo sapiens) (P04629 33-796 limits assumed): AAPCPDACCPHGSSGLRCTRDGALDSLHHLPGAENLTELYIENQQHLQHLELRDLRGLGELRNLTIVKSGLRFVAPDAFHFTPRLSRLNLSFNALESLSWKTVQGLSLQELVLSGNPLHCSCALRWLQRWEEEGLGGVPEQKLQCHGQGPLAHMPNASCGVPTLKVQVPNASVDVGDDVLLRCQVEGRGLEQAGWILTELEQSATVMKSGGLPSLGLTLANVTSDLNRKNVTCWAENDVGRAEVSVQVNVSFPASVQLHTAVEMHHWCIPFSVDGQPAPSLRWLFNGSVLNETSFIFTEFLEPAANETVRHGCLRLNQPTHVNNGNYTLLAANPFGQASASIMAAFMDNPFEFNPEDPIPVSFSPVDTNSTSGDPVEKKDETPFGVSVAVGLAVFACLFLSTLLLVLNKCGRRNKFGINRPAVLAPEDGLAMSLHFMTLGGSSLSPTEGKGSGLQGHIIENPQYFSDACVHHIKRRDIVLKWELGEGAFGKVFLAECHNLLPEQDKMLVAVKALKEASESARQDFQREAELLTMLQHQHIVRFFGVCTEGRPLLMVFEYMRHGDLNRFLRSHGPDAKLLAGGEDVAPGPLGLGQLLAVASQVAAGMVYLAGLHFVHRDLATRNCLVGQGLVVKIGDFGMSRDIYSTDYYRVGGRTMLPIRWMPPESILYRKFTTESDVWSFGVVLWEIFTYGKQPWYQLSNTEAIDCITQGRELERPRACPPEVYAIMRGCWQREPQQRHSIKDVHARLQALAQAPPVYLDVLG
Chain of BDNF/NT-3 growth factors receptor (Q16620 whole entry, the tested form may be a part): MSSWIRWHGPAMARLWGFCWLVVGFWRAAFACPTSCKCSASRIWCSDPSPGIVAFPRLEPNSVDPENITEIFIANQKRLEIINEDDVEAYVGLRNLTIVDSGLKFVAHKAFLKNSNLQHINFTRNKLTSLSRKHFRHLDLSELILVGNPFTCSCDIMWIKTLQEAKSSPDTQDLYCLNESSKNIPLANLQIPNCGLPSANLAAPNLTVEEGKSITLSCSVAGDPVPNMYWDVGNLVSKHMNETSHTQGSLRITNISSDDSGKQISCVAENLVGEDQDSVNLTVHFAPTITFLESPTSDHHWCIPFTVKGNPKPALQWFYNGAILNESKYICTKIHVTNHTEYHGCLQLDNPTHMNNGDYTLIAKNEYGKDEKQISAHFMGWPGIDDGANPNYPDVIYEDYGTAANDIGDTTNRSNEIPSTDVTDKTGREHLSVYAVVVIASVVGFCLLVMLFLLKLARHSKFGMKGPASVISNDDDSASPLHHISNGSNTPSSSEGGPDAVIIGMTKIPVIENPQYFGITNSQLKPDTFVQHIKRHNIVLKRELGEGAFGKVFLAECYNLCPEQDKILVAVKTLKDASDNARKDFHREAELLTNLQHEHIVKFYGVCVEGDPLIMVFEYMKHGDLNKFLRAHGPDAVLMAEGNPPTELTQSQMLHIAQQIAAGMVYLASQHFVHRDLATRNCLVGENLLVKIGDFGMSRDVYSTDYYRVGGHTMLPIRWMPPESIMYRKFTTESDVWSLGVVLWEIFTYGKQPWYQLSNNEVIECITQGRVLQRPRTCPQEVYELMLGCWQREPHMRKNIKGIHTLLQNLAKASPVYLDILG

Broadly, the IC50 is the concentration needed to halve the response being measured. For the molecule `Cc1ccc(C(=O)Nc2ccc(N3CCCC3=O)nc2)cc1N1CCCC1=O`, the IC50 in assay [1] was 7.23 µM.

As to `CN1CCN(c2cc(-c3ccccc3)c(NC(=O)c3cc(N4CCCC4=O)c(Cl)cc3Cl)cn2)CC1`, in [1], the half-inhibitory concentration (IC50) was above 10 µM.

As for `Cc1ccc(C(=O)Nc2ccc(N3CCN(C)CC3)nc2)cc1N1CCCC1=O`, the IC50 in assay [1] was found to be 1.99 µM.

Turning to `Cc1ccc(C(=O)Nc2ccc(N3CCN(C4CCCC4)C3=O)nc2)cc1N1CCCC1=O`, the inhibition entry in assay [2], in assay [4], in [6] and in [7] was “Dose-Dependent Effect” in each case. In addition, the concentration for half-maximal inhibition (IC50) in assay [3] was 3.32 µM; in assay [5] it was above 10 µM; in assay [1], 2.91 µM; in [8], 6.17 µM; in assay [9], above 10 µM.

In the case of `CN1CCN(c2ccc(NC(=O)c3ccc(Cl)c(N4CCCC4=O)c3)cn2)CC1`, in assay [1], the 50% inhibitory concentration (IC50) was determined as 1.55 µM.

For `CN1CCN(c2ccc(NC(=O)c3cc(N4CCCC4=O)c(Cl)cc3Cl)cn2)CC1`, the half-maximal inhibitory concentration (IC50) in [1] is 1.83 µM.

Regarding `Cc1ncc(NC(=O)NC2c3ccccc3-c3ccccc32)c(-c2ccccc2)n1`, the IC50 in [10] was 81 µM.
